Measurements reported in PMC9374667 (Communications Biology, 2022).
Several values for one entry are separate records, joined by “and”; a condition that tells them apart may be missing. Equal values may be shown once.

Columns and labels:
[1] = In vivo pharmacokinetics studies after gavage; conditions: male, SD, rat, plasma, po
Procedure: The pharmacokinetic parameters were calculated by the statistical moment method of non-atrioventricular model.
Blood samples (0.5 mL) were collected from the retro-orbital venous plexus at appropriate time points and placed in collection tubes with anticoagulants. Plasma was obtained from the blood samples by centrifuged (4000 rpm, 10 min, 4 °C) and stored at −20 °C until analysis. 400 µL of acetonitrile was added to 200 µL of rat plasmas, and vortexed for 90 s and finally centrifuged at 12,000 rpm for about 10 min. 20 µL of the supernatant was used to determinate the concentration of berberine in plasma by using the liquid chromatography-mass spectrometry (Waters XBridge, Waters, USA).
The maximum peak concentration (Cmax) and the time of reaching Cmax (Tmax) can be obtained from the measured data. The area under the concentration-time curve (AUC0→t) was estimated by the trapezoidal summation. The area under the curve from time zero to infinity (AUC0→∞) was also determined..

[2] = cited from earlier work
IKKε = molecular target: T1, IKKε (Mus musculus, UniProt Q9R0T8); assay: IKKε kinase activity in TNF-α induced 3T3-L1 adipocytes; type: cell-based, Murine; design: endogenous in cells; host or cells: differentiated 3T3-L1 adipocytes; IKKε kinase activity: unit not given here; conditions: for IKKε kinase activity: Figure 7h, replicates
T1 sequence (Q9R0T8 1-717): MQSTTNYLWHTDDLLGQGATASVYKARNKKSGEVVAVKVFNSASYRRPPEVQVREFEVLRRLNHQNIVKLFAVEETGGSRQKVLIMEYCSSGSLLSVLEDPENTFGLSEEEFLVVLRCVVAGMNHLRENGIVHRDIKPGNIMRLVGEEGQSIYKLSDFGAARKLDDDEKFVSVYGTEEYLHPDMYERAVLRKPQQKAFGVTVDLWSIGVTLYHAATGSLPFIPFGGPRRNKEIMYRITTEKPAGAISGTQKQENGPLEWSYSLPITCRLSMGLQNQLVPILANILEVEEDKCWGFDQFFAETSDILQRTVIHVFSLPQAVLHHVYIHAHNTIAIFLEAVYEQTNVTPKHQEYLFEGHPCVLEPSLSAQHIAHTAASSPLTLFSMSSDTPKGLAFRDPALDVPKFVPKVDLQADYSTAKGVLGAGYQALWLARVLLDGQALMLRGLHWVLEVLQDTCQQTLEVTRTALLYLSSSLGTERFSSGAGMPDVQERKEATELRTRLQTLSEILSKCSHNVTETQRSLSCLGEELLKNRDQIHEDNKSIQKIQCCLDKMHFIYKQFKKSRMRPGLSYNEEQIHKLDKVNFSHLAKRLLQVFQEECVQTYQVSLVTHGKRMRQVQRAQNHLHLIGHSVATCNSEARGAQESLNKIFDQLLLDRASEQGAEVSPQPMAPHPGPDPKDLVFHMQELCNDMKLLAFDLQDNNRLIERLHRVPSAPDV

cAMP, glycerol release = assay: cAMP levels and glycerol release in TNF-α induced 3T3-L1 adipocytes (isoproterenol); type: cell-based, Murine
Procedure: The epididymal adipose tissue was dissected, the fresh adipose tissue was weighed and rapidly rinsed with PBS. The adipose tissue was cut and incubated with isoproterenol (10 μM) for 2 h, and homogenized in a cold cleavage buffer to prepare the adipose tissue homogenate. Then the homogenate was centrifuged at 12,000 × g at 4 °C for 15 min, and the supernatant was collected. […] Then the cells were lysed in a petri dish, scraped off, and centrifuged at 12,000 × g at 4 °C for 15 min before the supernatant was collected. […] And concentrations were further standardized according to protein concentration.

| Compound | Tmax [1] [min] | Maximum plasma concentration (Cmax) ([2]; acute oral BBR (400 mg) provocation tests) | Share of the oral dose that enters the systemic circulation ([2]; human subjects) | Steady-state concentration in human plasma ([2]; oral BBR 300 mg/d for seven days) | IKKε kinase activity (IKKε; TNF-α(50ng/ml)+3μM BJ) | IKKε kinase activity (IKKε; TNF-α(50ng/ml)+10μM BJ) | IKKε expression level / kinase activity (IKKε; TNF-α induced 3T3-L1 adipocytes, BJ treatment for 24 h) | Glycerol release in differentiated 3T3-L1 adipocytes induced by TNF-α (cAMP, glycerol release; BJ) | cAMP levels in differentiated 3T3-L1 adipocytes induced by TNF-α (cAMP, glycerol release; BJ) | Glycerol release in differentiated 3T3-L1 adipocytes induced by TNF-α (cAMP, glycerol release; BJ+TNF-α(50ng/ml)) | cAMP levels in differentiated 3T3-L1 adipocytes induced by TNF-α (cAMP, glycerol release; BJ+TNF-α(50ng/ml)) | Glycerol release in differentiated 3T3-L1 adipocytes induced by TNF-α (cAMP, glycerol release; ISO+BJ) | cAMP levels in differentiated 3T3-L1 adipocytes induced by TNF-α (cAMP, glycerol release; ISO+BJ) | Glycerol release in differentiated 3T3-L1 adipocytes induced by TNF-α (cAMP, glycerol release; ISO+BJ+TNF-α(50ng/ml)) | cAMP levels in differentiated 3T3-L1 adipocytes induced by TNF-α (cAMP, glycerol release; ISO+BJ+TNF-α(50ng/ml)) | Glycerol release and cAMP levels (cAMP, glycerol release; TNF-α induced 3T3-L1 adipocytes, BJ pretreatment, isoproterenol stimulation) |
| --- | --- | --- | --- | --- | --- | --- | --- | --- | --- | --- | --- | --- | --- | --- | --- | --- |
| COc1ccc2cc3[n+](cc2c1OC)CCc1cc2c(cc1-3)OCO2 [BBR, Berberine chloride dihydrate] | 30 ± 4.8 | approximately 0.4 ng/ml | less than 5% | approximately 0.3 ng/ml |  |  |  |  |  |  |  |  |  |  |  |  |
| CC(C)Cc1ccc(C(C)C(=O)[O-])cc1.COc1ccc2cc3[n+](cc2c1OC)CCc1cc2c(cc1-3)OCO2.O.O.O.O [BJ, berberine-ibuprofen] |  |  |  |  | 47.3662 and 40.5834 and 38.8273 and 37.402 and 43.0522 and 46.31 | 22.5765 and 26.127 and 25.2998 and 23.4546 and 23.7218 and 26.8142 | markedly decreased | 92.8546 µmol/L and 97.0733 µmol/L and 93.6983 µmol/L | 0.2237 pmol/mg protein and 0.2235 pmol/mg protein and 0.2307 pmol/mg protein | 63.3237 µmol/L and 59.9487 µmol/L and 58.2612 µmol/L | 0.1653 pmol/mg protein and 0.1544 pmol/mg protein and 0.1605 pmol/mg protein | 186.51 µmol/L and 191.572 µmol/L and 183.135 µmol/L | 0.3839 pmol/mg protein and 0.37 pmol/mg protein and 0.3787 pmol/mg protein | 167.104 µmol/L and 166.26 µmol/L | 0.248 pmol/mg protein and 0.2422 pmol/mg protein and 0.2461 pmol/mg protein | promoted glycerol release, increased cAMP levels |
